Among the data in PubChem BioAssay (NCI) are TGI and GI50 values, retold here.

Values joined by “and” are separate entries in the source; they are usually repeats but may differ in a detail not shown here. Identical values can stand only once.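 Tested at 5 concentrations; 48 h exposure; 96-well plates; endpoints linearly interpolated, else capped at highest concentration. The concentration for 50% growth inhibition is given as GI50. At the TGI there is no net growth.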

Test systems include A549 NSCLC; T-47D breast; SR leukemia; NCI-H226 lung; M14 melanoma; HCT-116 colon; MALME-3M melanoma; UACC-257 melanoma; KM12 colon; TK-10 renal.
Holding throughout (test): NCI tumour cell line growth inhibition, 48 h

Consider `CC(=O)O[C@H]1CC2C(C3CC[C@H](C(C)CCC(=O)O)[C@]31C)[C@H](OC(C)=O)C[C@@H]1CC3(CC[C@]21C)OOC1(CCC(C)CC1)OO3` (some centres undefined), for which the TGI with A549 NSCLC is 13.4 µM and 3.86 µM; in the test on T-47D breast it was 14.1 µM and 8.75 µM; with SR leukemia it was 3.82 µM and 3.94 µM; with NCI-H226 lung it was 22.8 µM and 5.34 µM; with M14 melanoma it was 19.3 µM and 10.9 µM; in the test with HCT-116 colon, 13.9 µM and 5.9 µM. The TGI in the test with MALME-3M melanoma is 28.3 µM and 8.04 µM; with UACC-257 melanoma, 24.8 µM and 24.3 µM; in the test with KM12 colon, 19.4 µM and 6.98 µM; in the test on TK-10 renal, 33 µM and 9.19 µM. Moreover, the GI50 in the test on NCI-H226 lung is 4.56 µM and 2.11 µM; with MALME-3M melanoma, 12.5 µM and 2.73 µM; in the test with KM12 colon it was 5.73 µM and 2.31 µM; in the test with TK-10 renal, 18.6 µM and 3.08 µM.

On to `Fc1ccc(NC(c2ccc(F)cc2)C2CCN(CCCCc3ccccc3)CC2)cc1` (centres undefined), for which the GI50 with A549 NSCLC was 1.91 µM; in the test with T-47D breast, 1.65 µM; in the test with SR leukemia, 1.57 µM; with NCI-H226 lung, 1.78 µM; in the test on M14 melanoma it was 1.59 µM; with HCT-116 colon, 1.41 µM. Besides, the GI50 in the test on MALME-3M melanoma was 1.4 µM; with UACC-257 melanoma, 1.97 µM; with KM12 colon, 1.85 µM; with TK-10 renal, 2.07 µM. The TGI in the test with A549 NSCLC is 3.73 µM; in the test with T-47D breast, 3.62 µM; with SR leukemia, 3.89 µM; in the test with NCI-H226 lung, 3.6 µM; with M14 melanoma it was 3.2 µM; in the test with HCT-116 colon it was 2.75 µM. Moreover, the TGI turned out to be 2.88 µM in the test on MALME-3M melanoma, 3.79 µM in the test on UACC-257 melanoma, 3.67 µM in the test with KM12 colon and 5.34 µM in the test with TK-10 renal.

Turning to `C=C(CN1CCc2[nH]c3ccc(F)cc3c2C1)c1ccc(C(=O)Nc2ccccc2N)cc1`, the GI50 in the test with A549 NSCLC was 1.17 µM; in the test on T-47D breast, 3.76 µM; with SR leukemia, 0.795 µM; with NCI-H226 lung, 2.47 µM; in the test on M14 melanoma, 0.78 µM; in the test with HCT-116 colon it was 0.367 µM. Moreover, the GI50 with MALME-3M melanoma was 0.389 µM; in the test on UACC-257 melanoma, 0.6 µM; in the test on KM12 colon, 0.524 µM; in the test on TK-10 renal, 2.58 µM. Also, the TGI in the test on A549 NSCLC was found to be 9.17 µM; in the test on T-47D breast, 87.8 µM; in the test with SR leukemia, 20.1 µM; in the test with NCI-H226 lung, 7.32 µM; in the test with M14 melanoma it was 4.75 µM; in the test on HCT-116 colon, 5.04 µM. In addition, the TGI with MALME-3M melanoma turned out to be 3.1 µM; with UACC-257 melanoma, 2.71 µM; in the test with KM12 colon, 2.94 µM; in the test on TK-10 renal, 16.2 µM.

On to `COc1ccc(-c2cc(/C=C/C(=O)c3ccc(N)cc3)[nH]n2)cc1OC`, for which the GI50 in the test on A549 NSCLC is 2.75 µM; in the test on T-47D breast it was 4.25 µM; with SR leukemia, 0.587 µM; in the test with NCI-H226 lung, 2.32 µM; with M14 melanoma it was 2.28 µM; in the test with HCT-116 colon it was 1.71 µM. Moreover, the GI50 in the test with MALME-3M melanoma was 6.72 µM; in the test with UACC-257 melanoma, 6.46 µM; in the test on KM12 colon it was 1.68 µM; in the test on TK-10 renal it was 10.9 µM. The TGI in the test with A549 NSCLC came to 10.1 µM; in the test with T-47D breast it was 26 µM; with SR leukemia, 5.31 µM; with NCI-H226 lung, 7.38 µM; with M14 melanoma, 5.11 µM; in the test with HCT-116 colon it was 3.51 µM. Besides, the TGI is 21.2 µM in the test on MALME-3M melanoma, 19.5 µM with UACC-257 melanoma, 3.35 µM in the test with KM12 colon and 23 µM in the test on TK-10 renal.

With `CCCCCC(=O)O[C@]1(C(C)=O)CCC2C3CCC4=CC(=O)CC[C@]4(C)C3CC[C@@]21C` (some centres undefined), the GI50 in the test on A549 NSCLC is 2.78 µM; in the test with T-47D breast, 3.77 µM; in the test on SR leukemia it was 2.14 µM; in the test with NCI-H226 lung, 1.8 µM; in the test with M14 melanoma, 2.55 µM; in the test on HCT-116 colon it was 1.75 µM. In addition, the GI50 is 2.18 µM in the test on MALME-3M melanoma, 3.15 µM in the test on UACC-257 melanoma, 2.24 µM with KM12 colon and 3.46 µM with TK-10 renal. Besides, the TGI in the test with A549 NSCLC amounted to 15.9 µM; in the test with T-47D breast, 25.7 µM; with SR leukemia it was 6.5 µM; with NCI-H226 lung it was 4.78 µM; with M14 melanoma it was 6.85 µM; with HCT-116 colon it was 4.23 µM. Besides, the TGI with MALME-3M melanoma is 6.05 µM; in the test with UACC-257 melanoma, 12.6 µM; in the test on KM12 colon, 5.24 µM; in the test with TK-10 renal, above 23.7 µM.

As to `CCCCS(=O)c1sc2nc(-c3cccs3)cc(-c3ccccc3)c2c1N` (centres undefined), the GI50 is 9.69 µM in the test with A549 NSCLC; 5.77 µM in the test on T-47D breast; 6.46 µM in the test with SR leukemia; 17.8 µM with NCI-H226 lung; 17.9 µM in the test on M14 melanoma; 12.3 µM with HCT-116 colon. Also, the GI50 in the test on MALME-3M melanoma is 26.1 µM; in the test on UACC-257 melanoma, 25.1 µM; in the test on KM12 colon, 17.8 µM; in the test with TK-10 renal it was 15 µM. Also, the TGI was above 100 µM in the test on A549 NSCLC; 46.7 µM with T-47D breast; above 68 µM in the test on SR leukemia; above 100 µM in the test on NCI-H226 lung; above 100 µM in the test on M14 melanoma; above 100 µM in the test on HCT-116 colon. The TGI with MALME-3M melanoma is 75.4 µM; with UACC-257 melanoma, 90.5 µM; in the test on KM12 colon it was above 100 µM; with TK-10 renal, above 84 µM.

Turning to `COc1ccc(-c2[nH]c3ccc(OC)cc3c2C=C(C#N)C#N)cc1`, the GI50 was 3.78 µM in the test on A549 NSCLC; 2.57 µM in the test on T-47D breast; 0.0188 µM with SR leukemia; 1.45 µM in the test on NCI-H226 lung; 0.376 µM with M14 melanoma; 0.477 µM in the test with HCT-116 colon. Moreover, the GI50 in the test with MALME-3M melanoma is above 100 µM; in the test with UACC-257 melanoma, above 100 µM; with KM12 colon, 0.52 µM; in the test with TK-10 renal it was above 100 µM. Also, the TGI in the test with A549 NSCLC is above 100 µM; with T-47D breast, above 100 µM; in the test on SR leukemia it was 0.116 µM; in the test with NCI-H226 lung, above 100 µM; with M14 melanoma, above 100 µM; with HCT-116 colon, above 100 µM. The TGI with MALME-3M melanoma, in the test on UACC-257 melanoma, in the test on KM12 colon and in the test with TK-10 renal was above 100 µM in each case.

Regarding `C=CCN(CC=C)C(=O)c1cc(C)nc2c1c(=O)n(-c1ccccc1)c(=O)n2CCCN1CCN(c2ccccc2OC)CC1`, the GI50 in the test with A549 NSCLC, in the test on T-47D breast, in the test with SR leukemia, with NCI-H226 lung, with M14 melanoma and in the test on HCT-116 colon was above 50 µM throughout. Further, the GI50 in the test on MALME-3M melanoma, in the test with UACC-257 melanoma, in the test on KM12 colon and in the test on TK-10 renal was above 50 µM throughout. The TGI in the test on A549 NSCLC, with T-47D breast, in the test with SR leukemia, in the test on NCI-H226 lung, in the test with M14 melanoma and in the test on HCT-116 colon was above 50 µM in each case. Moreover, the TGI with MALME-3M melanoma, in the test on UACC-257 melanoma, in the test on KM12 colon and in the test on TK-10 renal was above 50 µM in each case.
